Results: patent publication US9556148B2, “N-cyanomethylamides as inhibitors of janus kinase” (CADILA HEALTHCARE LIMITED, priority 2013, dated 2017)
pIC50: −log10 of the molar value.

Legend:
JAK 2 = JAK 2 (Homo sapiens (Human), UniProt O60674); conditions: reported in WO 2008109943; read-out: reported in vitro JAK 2 inhibition; cited from earlier work
JAK-3 = JAK-3 (Homo sapiens (Human), UniProt P52333); conditions: reported in WO 2008109943; read-out: reported in vitro JAK-3 inhibition; cited from earlier work
Chain of JAK-3 (P52333 whole entry, species assumed): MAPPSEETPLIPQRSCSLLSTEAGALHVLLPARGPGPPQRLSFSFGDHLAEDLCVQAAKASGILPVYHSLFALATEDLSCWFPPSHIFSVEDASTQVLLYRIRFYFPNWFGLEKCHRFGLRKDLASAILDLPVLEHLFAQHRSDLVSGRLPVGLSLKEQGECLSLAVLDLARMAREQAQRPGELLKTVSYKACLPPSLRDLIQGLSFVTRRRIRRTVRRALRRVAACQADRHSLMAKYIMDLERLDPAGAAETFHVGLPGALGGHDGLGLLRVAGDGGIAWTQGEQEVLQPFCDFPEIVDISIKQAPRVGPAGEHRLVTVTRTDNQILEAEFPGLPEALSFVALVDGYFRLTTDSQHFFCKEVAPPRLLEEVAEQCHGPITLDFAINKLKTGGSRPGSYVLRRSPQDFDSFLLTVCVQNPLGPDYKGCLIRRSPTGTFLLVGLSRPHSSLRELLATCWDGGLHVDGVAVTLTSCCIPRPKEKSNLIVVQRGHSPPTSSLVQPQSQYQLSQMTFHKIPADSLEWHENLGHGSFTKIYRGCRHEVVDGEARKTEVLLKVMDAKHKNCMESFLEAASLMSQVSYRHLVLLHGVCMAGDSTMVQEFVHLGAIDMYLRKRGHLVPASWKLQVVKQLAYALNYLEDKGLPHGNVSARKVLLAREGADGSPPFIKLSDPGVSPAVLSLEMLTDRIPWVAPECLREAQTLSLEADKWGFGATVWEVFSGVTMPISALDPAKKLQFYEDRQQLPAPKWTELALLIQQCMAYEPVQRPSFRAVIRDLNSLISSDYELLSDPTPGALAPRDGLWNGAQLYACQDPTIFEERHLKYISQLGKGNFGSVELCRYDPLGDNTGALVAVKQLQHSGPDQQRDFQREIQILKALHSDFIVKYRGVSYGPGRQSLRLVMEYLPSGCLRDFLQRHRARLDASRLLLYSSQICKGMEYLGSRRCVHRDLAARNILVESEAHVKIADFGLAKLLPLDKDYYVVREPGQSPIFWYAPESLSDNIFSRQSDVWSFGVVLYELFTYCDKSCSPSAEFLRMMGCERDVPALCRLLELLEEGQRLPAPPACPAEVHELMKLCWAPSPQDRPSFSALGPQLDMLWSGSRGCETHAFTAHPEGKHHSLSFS

[1] = target: recombinant purified human JAK2 (Homo sapiens (Human), UniProt O60674); assay: in vitro JAK kinase assay on ADP Glo platform, JAK2; format: biochemical; conditions: 50 μM ATP, 1 hr at room temperature; read-out: JAK-2 IC50
Chain of recombinant purified human JAK2 (O60674 whole entry): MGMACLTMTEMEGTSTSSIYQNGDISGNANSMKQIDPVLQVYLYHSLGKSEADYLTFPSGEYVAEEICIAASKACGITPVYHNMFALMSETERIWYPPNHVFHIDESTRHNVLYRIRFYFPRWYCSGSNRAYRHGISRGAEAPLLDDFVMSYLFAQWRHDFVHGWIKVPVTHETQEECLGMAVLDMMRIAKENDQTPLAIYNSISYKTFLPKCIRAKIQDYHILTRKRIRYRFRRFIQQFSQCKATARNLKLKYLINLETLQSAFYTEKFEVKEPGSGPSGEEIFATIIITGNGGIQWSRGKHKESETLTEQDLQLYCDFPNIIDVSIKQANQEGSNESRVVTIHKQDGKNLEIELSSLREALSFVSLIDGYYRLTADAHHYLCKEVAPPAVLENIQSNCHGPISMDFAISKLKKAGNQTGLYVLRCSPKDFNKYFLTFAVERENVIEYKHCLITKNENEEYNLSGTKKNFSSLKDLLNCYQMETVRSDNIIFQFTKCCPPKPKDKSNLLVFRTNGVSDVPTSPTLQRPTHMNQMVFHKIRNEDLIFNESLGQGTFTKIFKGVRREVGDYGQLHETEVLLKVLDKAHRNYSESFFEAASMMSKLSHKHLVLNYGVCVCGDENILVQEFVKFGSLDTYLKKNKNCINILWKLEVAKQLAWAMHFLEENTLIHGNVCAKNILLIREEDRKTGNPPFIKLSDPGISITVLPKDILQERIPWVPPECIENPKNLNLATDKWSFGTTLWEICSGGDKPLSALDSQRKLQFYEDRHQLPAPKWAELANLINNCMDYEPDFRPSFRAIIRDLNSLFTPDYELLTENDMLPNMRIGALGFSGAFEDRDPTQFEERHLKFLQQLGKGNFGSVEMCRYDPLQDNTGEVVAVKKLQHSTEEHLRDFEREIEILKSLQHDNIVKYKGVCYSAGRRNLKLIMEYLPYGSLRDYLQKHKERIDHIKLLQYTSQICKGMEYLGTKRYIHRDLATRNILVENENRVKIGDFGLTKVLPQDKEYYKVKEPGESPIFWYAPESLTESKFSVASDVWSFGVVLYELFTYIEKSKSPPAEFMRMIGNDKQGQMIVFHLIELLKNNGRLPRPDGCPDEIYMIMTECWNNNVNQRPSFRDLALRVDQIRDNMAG
Protocol: (§1) NCEs were screened using in vitro JAK (1, 2 and 3) kinase assay on ADP Glo platform (Promega). Fixed amount of recombinant purified human JAK (25 ng of JAK1 and 10 ng of JAK2 and JAK3 per reaction, from Life Technologies Ltd) were incubated with increasing concentration of NCEs in 1× kinase reaction buffer (40 mM Tris-Cl, pH7.5, 20 mM MgCl2, 0.1 mg/ml BSA and 50 μM DTT). Enzymatic reaction was initiated by adding a substrate cocktail containing 50 μM of ATP (final concentration) and 5 μg for JAK1 and 2.5 μg for JAK2 and JAK3 of polyGln4Tyr1 (Signal Chem) in total 25 μl of reaction in 96 well plate. The reaction was incubated at room temperature for 1 hr.
(§2) After 1 hr of incubation equal volume (25 μl per reaction) of ADP Glo was added and incubated at room temperature for 40 min.
(§3) This was followed by addition of kinase detection reagent (50 μl per reaction) and incubation at room temperature for 30 min. Finally, plate was read for luminescence at an integration time of 500 millisecond per well.
(§4) Data were plotted taking Enzyme with no inhibitor set as the 100% kinase activity. IC50 values were calculated using Graph Pad Prism software.

[2] = tested on: PGPS arthritis, PAW inflammation; assay: Peptidogylcan Polysaccharide Polymers (PGPS) arthritis; format: in vivo, Sprague dawley rats; conditions: rats, values for day 16
Protocol: Female Sprague dawley rats were primed with an intra-articular injection of 20 μl of PGPS at 0.5 mg/ml of rhamnose in the right ankle. At 2 weeks the ankle diameters were measured with plethysmometer and rats assigned to groups of similar distribution of initial joint diameters. Rats then received their first dose of compound followed 1 h later by an i.v. injection of 0.5 ml of PGPS (0.5 mg/ml of rhamnose) in the tail vein. Compounds were dosed at 10 mg/kg and ankle diameters measured for 3 days [i.e. day 15, 16, 17]. Values are given for day 16.

[3] = target: recombinant purified human JAK1 (Homo sapiens (Human), UniProt P23458); assay: in vitro JAK kinase assay on ADP Glo platform, JAK1; format: biochemical; conditions: 50 μM ATP, 1 hr at room temperature
Chain of recombinant purified human JAK1 (P23458 whole entry): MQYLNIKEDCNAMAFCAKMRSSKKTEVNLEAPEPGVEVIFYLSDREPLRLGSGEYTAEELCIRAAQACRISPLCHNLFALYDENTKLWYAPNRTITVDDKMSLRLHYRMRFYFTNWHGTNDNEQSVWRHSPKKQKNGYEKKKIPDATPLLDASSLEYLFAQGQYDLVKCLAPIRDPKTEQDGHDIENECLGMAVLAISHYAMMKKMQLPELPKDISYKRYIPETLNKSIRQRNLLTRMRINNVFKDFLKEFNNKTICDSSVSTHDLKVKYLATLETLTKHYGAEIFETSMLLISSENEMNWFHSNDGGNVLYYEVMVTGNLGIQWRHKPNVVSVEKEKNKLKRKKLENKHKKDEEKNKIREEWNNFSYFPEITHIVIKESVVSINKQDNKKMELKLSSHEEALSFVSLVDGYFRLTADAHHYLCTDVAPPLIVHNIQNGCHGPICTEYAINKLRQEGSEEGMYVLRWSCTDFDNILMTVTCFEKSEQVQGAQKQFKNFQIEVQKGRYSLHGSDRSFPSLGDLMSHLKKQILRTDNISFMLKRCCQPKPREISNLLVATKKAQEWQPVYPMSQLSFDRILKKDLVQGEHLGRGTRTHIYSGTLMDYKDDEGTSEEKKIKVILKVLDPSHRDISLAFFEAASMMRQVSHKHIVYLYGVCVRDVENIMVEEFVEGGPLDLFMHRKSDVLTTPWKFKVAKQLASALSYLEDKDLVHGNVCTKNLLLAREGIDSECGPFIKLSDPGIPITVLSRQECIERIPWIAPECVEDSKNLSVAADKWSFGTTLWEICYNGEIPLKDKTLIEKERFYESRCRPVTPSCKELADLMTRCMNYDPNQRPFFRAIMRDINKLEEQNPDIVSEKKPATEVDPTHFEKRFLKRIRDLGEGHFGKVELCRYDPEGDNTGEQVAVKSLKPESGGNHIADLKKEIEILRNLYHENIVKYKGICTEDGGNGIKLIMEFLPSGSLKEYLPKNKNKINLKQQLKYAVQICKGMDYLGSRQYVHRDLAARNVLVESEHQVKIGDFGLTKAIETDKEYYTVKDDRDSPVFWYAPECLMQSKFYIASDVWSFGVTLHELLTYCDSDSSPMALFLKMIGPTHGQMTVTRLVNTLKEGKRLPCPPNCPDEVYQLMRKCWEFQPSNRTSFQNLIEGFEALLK
Protocol: as §1, §2, §3, §4

[4] = target: recombinant purified human JAK3 (Homo sapiens (Human), UniProt P52333); assay: in vitro JAK kinase assay on ADP Glo platform, JAK3; format: biochemical; conditions: 50 μM ATP, 1 hr at room temperature; read-out: JAK-3 IC50
Chain of recombinant purified human JAK3 (P52333 whole entry): as the sequence (P52333 whole entry, species assumed) above
Protocol: as §1, §2, §3, §4

Chain of JAK 2 (O60674 whole entry, species assumed): as the sequence (O60674 whole entry) above

N#CCNC(=O)c1ccc(-c2ccnc(Nc3ccc(ON4CCC(N5CCCC5)CC4)cc3)n2)cc1 [compounds 2]
pIC50 (JAK 2): > 6.00 | pIC50 (JAK-3): > 4.70

N#CCNC(=O)c1ccc(-c2ccnc(Nc3ccc(N4CCC(n5cncn5)CC4)cc3)n2)cc1 [Example 4, 4-(2-((4-(4-(1H-1,2,4-triazol-1-yl)piperidin-1-yl)phenyl)amino)pyrimidin-4-yl)-N-(cyanomethyl)benzamide]
pIC50 [1]: 7.77 | % Reduction in PAW inflammation at dose 10 mg/Kg [2]: 52% | pIC50 [3]: 7.68 | pIC50 [4]: 7.18

N#CCNC(=O)c1ccc(-c2ccnc(Nc3ccc(N4CCC(N5CCCC5=O)CC4)cc3)n2)cc1 [Example 1, N-(cyanomethyl)-4-(2-((4-(4-(2-oxopyrrolidin-1-yl)piperidin-1-yl)phenyl)amino)pyrimidin-4-yl)benzamide]
% Reduction in PAW inflammation at dose 10 mg/Kg [2]: 51% | pIC50 [3]: 7.92 | pIC50 [4]: 7.14

N#CCNC(=O)c1ccc(-c2ccnc(Nc3ccc(N4CCC(N5CCC6(CCCO6)CC5)CC4)cc3)n2)cc1 [Example 24, 4-(2-((4-(4-(1-oxa-8-azaspiro[4.5]decan-8-yl)piperidin-1-yl)phenyl)amino)pyrimidin-4-yl)-N-(cyanomethyl)benzamide]
pIC50 [1]: 8.30 | % Reduction in PAW inflammation at dose 10 mg/Kg [2]: 41% | pIC50 [3]: 8.30 | pIC50 [4]: 7.64

N#CCNC(=O)c1ccc(-c2ccnc(Nc3ccc(N4CCC(N5CC6CC(C5)O6)CC4)cc3)n2)cc1 [Example 17, 4-(2-((4-(4-(6-oxa-3-azabicyclo[3.1.1]heptan-3-yl)piperidin-1-yl)phenyl)amino)pyrimidin-4-yl)-N-(cyanomethyl)benzamide]
pIC50 [1]: 8.10 | % Reduction in PAW inflammation at dose 10 mg/Kg [2]: 57% | pIC50 [3]: 7.89 | pIC50 [4]: 7.16

Cc1nnc(C2CCN(c3ccc(Nc4nccc(-c5ccc(C(=O)NCC#N)cc5)n4)cc3)CC2)o1 [Example 25, N-(cyanomethyl)-4-(2-((4-(4-(5-methyl-1,3,4-oxadiazol-2-yl)piperidin-1-yl)phenyl)amino)pyrimidin-4-yl)benzamide]
% Reduction in PAW inflammation at dose 10 mg/Kg [2]: 63% | pIC50 [3]: 7.92

N#CCNC(=O)c1ccc(-c2ccnc(Nc3ccc(N4CCC(c5n[nH]c(=O)o5)CC4)cc3)n2)cc1 [Example 29, N-(cyanomethyl)-4-(2-((4-(4-(5-oxo-4,5-dihydro-1,3,4-oxadiazol-2-yl)piperidin-1-yl)phenyl)amino)pyrimidin-4-yl)benzamide]
pIC50 [1]: 7.68 | % Reduction in PAW inflammation at dose 10 mg/Kg [2]: 43% | pIC50 [3]: 7.82 | pIC50 [4]: 7.25

N#CCNC(=O)c1ccc(-c2ccnc(Nc3ccc(N4CCC(N5CCOCC5)CC4)cc3)n2)cc1 [Example 3, N-(cyanomethyl)-4-(2-((4-(4-morpholinopiperidin-1-yl)phenyl)amino)pyrimidin-4-yl)benzamide]
% Reduction in PAW inflammation at dose 10 mg/Kg [2]: 56%
